Results published in patent US11039618B2, “Metam salts and polysulfide soil treatment” (Tessenderlo Kerley, Inc, priority 2016, dated 2021).

Tests used:
[1] = tested on: Verticillium; experiment: Jar test 2015: Verticillium microsclerotia colonies in treated soil (soil moisture 35% w/w); assay type: cell-based, Verticillium dahliae; conditions: Metam 68 gal/acre (323 kg active/ha)
Procedure: These investigations were performed under laboratory conditions in an initial jar test. We also investigated the pathogen control efficacy of LSS treatments, at 30 gal/acre (90 pounds/acre or 101 Kg/ha of calcium polysulfide) and at 90 gal/acre (276 pounds/acre or 310 Kg/ha of calcium polysulfide), and combined Metam/LSS treatments using Sectagon® brand metam at 20 gal/acre Metam (84 pounds/acre or 94 Kg/ha of metam sodium) with 40 gal/acre LSS (122 pounds/acre or 138 Kg/ha of calcium polysulfide); and at 30 gal/acre Metam (126 pounds/acre or […] of metam sodium) with 20 gal/acre LSS (60 pounds/acre or 67 kg/ha of calcium polysulfide). […] This may be due to lower water saturation in the 2016 tests compared to the saturation in 2015 tests, which was near 100%.
The major difference between the 2015 tests and the 2016 tests was soil moisture. For the 2015 tests the soil moisture was set at 35% w/w (ca. 100% field capacity). For the 2016 tests, the soil moisture was set at 20% w/w (ca. 66% field capacity).
Differences in test protocol between 2015 and 2016 tests are summarized below, and colony counts per gram of dry soil for the 2015 tests are shown below.
2015: Soil Moisture 35% w/w (ca. 100% field capacity)
2016: Decided 2015 soil moisture was too high; reduced to 20% w/w. […]

[2] = tested on: soilborne fungi; experiment: Visual observation of general fungal growth on the plates (jar test); assay type: cell-based; conditions: observed visually on the plates
Excerpt: The general impact of LSS on fungal growth was also observed visually on the plates.

SMILES: CNC(=S)S [Metam, sodium methyldithiocarbamate]
- Microsclerotia (Verticillium) per gram of soil, ms/g, 2015 [1]: 3 ms/g
- reduction of fungal growth of soilborne fungi [2]: ~100%
